Experiment: Human HepG2 cell viability assay in 384 well format
Assay type: toxicity, cell-based
Design: dose 125 nL, time 70.5 hour; concentration not given beside the values
Details: HepG2 cells, read-out: Inhibition

Row | SMILES | cytotoxicity at 70.5 h
1 | CCC1CN(C(=O)NCCOc2ccc3c(c2)OCO3)CCO1 (stereo not given) | -19.8%
2 | CCCOc1cc(C)ccc1NC(=O)N(C)C | 4.68%
3 | Cc1cc(C[C@@H]2COC[C@@H]2NC(=O)CN2CCCN(C)CC2)on1 | -7.54%
4 | CN(C)C[C@@H]1CN(C(=O)Cc2cccc(O)c2)C[C@@H]1CO | -7.03%
5 | O=C1CC(c2cccs2)Cc2[nH]c(=O)c(C(=O)NC3CCCC3)cc21 (stereo not given) | -12.4%
6 | COc1ccccc1C(=O)N1CCCC1Cn1cc(C)cn1 (stereo not given) | -14.4%
7 | CN(C)CCN(CC1CCCO1)S(=O)(=O)NCc1ccccc1 (stereo not given) | -6.41%
8 | Cc1cnc(N2CCC3(CC2)CN(Cc2cccs2)CCO3)nc1 | -8.99%
9 | Cc1ccc(S(=O)(=O)Nc2ccc(-n3cccc3C(=O)O)c(C)c2)cc1 | -6.38%
10 | Cc1cnc2[nH]c(C(F)(F)F)c(CN3CCSCC3)c2c1 | -0.92%
11 | c1cnn(CC2CN(c3ncnc4[nH]ccc34)CCO2)c1 (stereo not given) | -0.974%
12 | CCc1ccc(C(=O)NCCNc2ncccn2)cc1 | 11.9%
13 | COc1cccc(N2CCN(C(C(=O)O)c3ccc(OC)nc3)CC2)c1 (stereo not given) | -9.28%
14 | CCCN1CCCn2nc(CNC(=O)CN(C)C3CCCC3)cc2C1 | -8%
15 | C=Cc1cccc(CN2C[C@H]3CC[C@@H]2CN(Cc2c(C)noc2C)C3)c1 | -0.99%
16 | O=C(NCC1CCOCC1)[C@@H]1C[C@@H]2[C@@H](CCN2Cc2ccoc2)O1 | 0.123%
17 | O=C(c1cccnc1)N(Cc1ccncc1)C1CC1 | -4.09%
18 | Cc1noc([C@@H]2C[C@@H]3CCN(CC4CC4)C[C@H]3O2)n1 | -4.17%
19 | COCCC1(C(=O)O)CCCN(C(=O)c2cnc3c(c2)CCCC3)C1 (stereo not given) | -14.8%
20 | Cc1cccc(C(=O)N2CCC3(CC2)CC(c2ccccc2)C(=O)N3)c1 (stereo not given) | -0.963%
21 | CCC[C@H]1CN(c2nccc(NCC)n2)C[C@@H]1NS(=O)(=O)N(C)C | -7.09%
22 | Cc1nc(C)n(CC2CCCN2CCOc2ccccc2F)n1 (stereo not given) | -3.47%
23 | COC[C@]1(O)CCN(c2cc(C3CC3)ncn2)CC1(C)C | -10.5%
24 | O=C(Cc1ccc2c(c1)OCCO2)NC1CCCCC1 | -1.15%
25 | O=C(NCCC1Cc2ccccc2C1)N1CCCC(O)C1 (stereo not given) | 26.4%
26 | CC(C)=CCN1CCN(C(=O)c2snnc2C)[C@H]2CS(=O)(=O)C[C@H]21 | -9.09%
27 | Cc1cnc(N2CCO[C@@H]3CC(COCc4cccnc4)C[C@H]32)nc1 (stereo not given in full) | -0.9%

Row | SMILES | cytotoxicity at 70.5 h
28 | Cc1ccc(-c2cn3c(n2)CO[C@@H](CNCc2cnn(C)c2)C3)cc1 | 6.98%
29 | CS(=O)(=O)N1C[C@H]2CCC[C@@]2(COCC2CCOCC2)C1 | -4.48%
30 | CCc1nnc2n1CC(CNc1cnc3ccccc3n1)CC2 (stereo not given) | 1.47%
31 | COc1cccc(OCC2CCCN(C(=O)Cc3cccc(O)c3)C2)c1 (stereo not given) | -11.3%
32 | O=C1COC2(COCCN(c3ccccn3)C2)CN1c1cccc(F)c1 (stereo not given) | -9.76%
33 | CC1CCCCN1c1nc2c(c(=O)[nH]1)CCN(Cc1ccccc1O)C2 (stereo not given) | -7.53%
34 | CN(Cc1csc(-c2cccs2)n1)Cc1ncccc1C(=O)O | -12.2%
35 | CN(CCCc1n[nH]c(N)c1C#N)C(=O)Nc1cc(Cl)cc(Cl)c1 | -11.9%
36 | O=C(CCc1ccsc1)N1CCC(Cc2ccc(CO)cc2)C1 (stereo not given) | -3.39%
37 | CC(NC(=O)NCCCc1n[nH]c(N)c1C#N)c1cccs1 (stereo not given) | 44.5%
38 | COc1cc(C(=O)NS(=O)(=O)c2cc(Cl)sc2Cl)ccc1OC(F)F | -5.6%
39 | CC(C)(C)c1c[nH]c([C@@H]2COCCN2C2CCOCC2)n1 | 12.2%
40 | CCN(CC)Cc1nc2c(o1)CN(S(=O)(=O)c1cccs1)C2 | -10.4%
41 | OCCOCc1ncn2c1CN(Cc1cccs1)CCC2 | 0.851%
42 | COC(=O)CN1N=C(C(=O)N2CCCC2)S(=O)(=O)c2ccccc21 | -4.54%
43 | CCC(C)(NCC(=O)OC)c1nc(C)cs1 (stereo not given) | -1.12%
44 | Cc1noc(C)c1-c1nc(C2CCCN(CCC(N)=O)C2)ccc1CO (stereo not given) | -6.81%
45 | Cc1nc(Nc2cnccn2)cc(C2CCCN2)n1 (stereo not given) | 19.5%
46 | Cc1ccc([C@@H]2CN(C(=O)c3cc(C)n[nH]3)C[C@H]2NC(=O)C2CC2)cc1 | 6.77%
47 | Cc1nc(CN(C)C2CCN(Cc3nnc(C4CC4)o3)C2)no1 (stereo not given) | 2.48%
48 | COc1c(C)cnc(CN2CCC(C(=O)N(C)C)CC2)c1C | -23.8%
49 | CC(C)N1C(=O)C2(CCN(C)CC2)c2cc(F)ccc21 | -7.44%
50 | Cc1noc(C)c1CN1CCC2(CC1)CC(Oc1cccnc1)C2 | -9.29%
51 | CCn1cc(CN(C)S(=O)(=O)c2ccc(C(C)C)cc2)cn1 | -6.2%
52 | CN1CCNC(Cc2ccc(-c3cccs3)cc2)C1=O (stereo not given) | -6.3%
53 | Cc1cc(C2CCCN2Cc2cc(=O)n(C)c(=O)n2C)on1 (stereo not given) | -12.3%
54 | CCCc1nc(CNC(C)Cn2cccn2)cs1 (stereo not given) | 3.08%

Row | SMILES | cytotoxicity at 70.5 h
55 | COCc1nn(CC2CC2)c2c1CN(C(=O)c1ccno1)CC2 | -3.21%
56 | CS(=O)(=O)NC1CCCN(C(=O)c2cccnc2)C1 (stereo not given) | -8.57%
57 | CC(C)(C)C(=O)c1ccsc1NC(=O)CCNC(=O)c1ccco1 | -5.13%
58 | COCC(=O)NC[C@]12COC[C@H]1CN(c1ncc(F)cn1)C2 | -7.55%
59 | CCN(CC)CCCC(C)NC(=O)c1cccnc1-n1cccn1 (stereo not given) | 3.18%
60 | Cc1ccnn1CCC(=O)N1CCCC2(C1)NC(=O)c1ccccc1O2 (stereo not given) | -2.25%
61 | COC(=O)N1CCc2ccccc2C1C(=O)NCc1ccncc1 (stereo not given) | -3.87%
62 | CCCS(=O)(=O)CC(=O)N1CCN(CC2CC2)c2ccccc21 | -7.98%
63 | COc1cccc(C(=O)NCC2CCN(C(=O)c3ccoc3)CC2)c1 | -3.78%
64 | Cc1cc(C(F)(F)F)n2nc(C3CCCN3C3CCSCC3)cc2n1 (stereo not given) | -2.47%
65 | CN(C)C(=O)N1CC[C@@H](c2ccc3ccccc3c2)[C@H](O)C1 | 6.36%
66 | Cc1nc2c(N3CCN(Cc4ccccc4)CC3)nc(N)nc2n1C | 0.226%
67 | CCN(CC)CCNCC1CCOC(C)(C)C1 (stereo not given) | -5.74%
68 | CC(NC(=O)NCCNc1cccc(F)c1C#N)c1cccs1 (stereo not given) | -4.54%
69 | CCOC(=O)c1nc(CC(=O)Nc2ccc3cc[nH]c3c2)no1 | -9.72%
70 | Cc1nn(C)c(N2CCOCC2)c1CNC(C)c1ccccn1 (stereo not given) | 5.82%
71 | O=C(NC1CCN(c2ccc(-c3ccccc3F)nn2)C1)c1cc[nH]n1 (stereo not given) | -12.8%
72 | Cc1ccc(CN2CCC3(CCC(=O)N3CC(=O)N(C)C)CC2)s1 | -13.1%
73 | Cc1csc(CN2C[C@@H]3CN(C)CCO[C@@H]3C2)n1 | -3.79%
74 | Cc1nc(CN2CCc3ncnc(-c4ccc(F)cc4)c3CC2)cs1 | -4.74%
75 | CSCCC1CC(=O)Nc2cc(O)c(C)cc21 (stereo not given) | 25.3%
76 | O=C(c1onc2ccccc12)N1CCC2(CCCNC2)C1 (stereo not given) | -16.6%
77 | CSc1ccc(C(=O)C2CCCN(C(=O)CCn3cncn3)C2)cc1 (stereo not given) | -16.6%
78 | Cc1nc(CN2CCN(c3ccc(SC(C)C)nn3)CC2)cs1 | 11.1%
79 | Cc1cccc(Nc2c(C#N)c(=O)n(C)c(=O)n2C)c1 | -3.97%
80 | CN(C)c1ncccc1CNC(=O)N1CCCC1c1cccs1 (stereo not given) | 1.79%
